Patent US6475502B1, “Kits containing cyanoacrylate compositions comprising an antimicrobial agent” (Flowers Park Ltd., priority 1997, dated 2002)
Where a name gives a salt, the structure may show the parent alone. Read-outs that look alike come from different tables or passages of the source.

Assays:
[1] = Solubility or suspendability of the antimicrobial agent in the n-butyl cyanoacrylate composition
[2] = Premature polymerization (gel formation) of the cyanoacrylate composition after mixing with the antimicrobial agent; assay type: physicochemical; conditions: for Period over which the composition polymerized after mixing: 5 weight percent agent based on total weight of composition; for Compatibility with the cyanoacrylate composition: overall conclusion of Example 1, for tetracycline hydrochloride and hexachlorophene when mixed immediately prior to use

SMILES	Soluble [1]	Soluble ([1]; in monomeric n-butyl cyanoacrylate with 100 ppm sulfur dioxide and 20 weight percent dioctyl phthalate, agent conc. per column Conc. (~20% iodine, 10% PVP-I2, 5% others))	Period over which the composition polymerized after mixing [2]	Compatibility with the cyanoacrylate composition [2]
CC[C@H]1OC(=O)[C@H](C)[C@@H](O[C@H]2C[C@@](C)(OC)[C@@H](O)[C@H](C)O2)[C@H](C)[C@@H](O[C@@H]2O[C@H](C)C[C@H](N(C)C)[C@H]2O)[C@](C)(O)C[C@@H](C)C(=O)[C@H](C)[C@@H](O)[C@]1(C)O [Erythromycin, erythromycin]	no, gelled^1			
O=C([O-])c1ccccc1-c1c2cc(Br)c(=O)cc-2oc2[c]([Hg+])c([O-])c(Br)cc12.[Na+].[Na+].[OH-] [Merbromin, merbromin]		no, gelled^1		
II [elemental iodine (I2), elemental iodine]	partially			
Oc1c(Cl)cc(Cl)c(Cl)c1Cc1c(O)c(Cl)cc(Cl)c1Cl [hexachlorophene]			~48 h	compatible
CN(C)[C@@H]1C(O)=C(C(N)=O)C(=O)[C@@]2(O)C(O)=C3C(=O)c4c(O)cccc4[C@@](C)(O)[C@H]3C[C@@H]12 [tetracycline hydrochloride]			~48 h	compatible
